This assay concerns Spodoptera frugiperda. Briefly: Laboratory test of 2nd instar larva of Spodoptera frugiperda on maize leaves (mortality). It is filed as in vivo.

SMILES strings stand for the structures.

As for `CNC(=O)c1cc(Cl)cc(C)c1NC(=O)c1cc(Br)nn1-c1ncccc1Cl` [Compound 2, 3-bromo-N-[4-chloro-2-methyl-6-[(methylamino)carbonyl]phenyl]-1-(3-chloro-2-pyridinyl)-1H-pyrazole-5-carboxamide], the “concentration per g of leaf tissue resulting in 50% mortality within 72 h” value (50% mortality within 72 h) was 0.033 micrograms per g of leaf tissu. Further, the “concentration per g of tissue needed to achieve 100% mortality within 72 h” value (100% mortality within 72 h) is listed as 0.037 micrograms per g of tissue.

Source of the values: patent publication US9149039B2, “Anthranilic diamide/polymer propagule-coating compositions” (E I DU PONT DE NEMOURS AND COMPANY, priority 2011, dated 2015).
